≈ marks a conversion by molar mass, not a printed value. Where “and” joins values, the source holds several entries; their conditions need not be identical. Identical values can stand only once. Like-named read-outs stand apart in the source and are kept apart here.
Tests used:
[1] = tested on: Staphylococcus aureus (ATCC25923); assay: Microdilution MIC assay (CLSI-based), S. aureus; format: cell-based; settings: 20 hours incubation at 35-37° C., MHB; for MIC: read-out: Minimum inhibitory concentration S. aureus ATCC25923
Method: (§1) The antibacterial activity of compounds was measured using a standard microdilution assay based on the Clinical and Laboratory Standards Institute (CLSI) guidelines. This method was slightly modified. Indeed, assay volumes were increased to 200 μL to improve reproducibility. The chemical compounds to be tested were in the form of salts for biological testing.
(§2) Bacteria tested: Antibacterial activities of the compounds were tested on Staphylococcus aureus (ATCC25923), Enterococcus faecalis (ATCC29212), Escherichia coli ([…]) and Pseudomonas aeruginosa (ATCC27853).
(§3) Preparation of the Preculture: Mueller Hinton Agar plates were inoculated with frozen biological strain in order to obtain separate colonies and the plates were incubated during 24 h at 35-37° C. 3 colonies of similar aspect were picked out, resuspended in 5 mL of fresh Mueller Hinton broth 1× (MHB) and incubated with shaking (160 rpm) at 35-37° C. overnight.
(§4) 0.1 mL of bacteria in exponential phase were suspended in 9.9 mL of MHB (1:100 dilution). 0.1 mL of the 1:100 dilution were dispensed into the wells of microplates containing 0.1 ml of serial compounds dilutions to yield ca. 5×10^5 CFU/mL. In parallel, the stocks solutions of chemical compounds were first diluted in appropriate solvent to a final concentration of 5 mg/mL. 8 μL were dispended into the first wells of the microplates containing 0.1 ml of sterile broth and a 0.5 cascade dilution was performed in MHB from 0.2 mg/mL. One control was made for each strain tested. […] Tests were performed in triplicate.
(§5) Reading of the Results: After incubation, the filter was replaced with a transparent film, and an optical density reading was then taken in an iEMS plate spectrophotometer at 620 nm. Calculation of the minimum inhibitory concentration (MIC) was performed.

[2] = tested on: Pseudomonas aeruginosa (ATCC27853); assay: Microdilution MIC assay (CLSI-based), P. aeruginosa; format: cell-based; settings: 20 hours incubation at 35-37° C., MHB; for MIC: read-out: Minimum inhibitory concentration P. aeruginosa ATCC27853
Method: as §1, §2, §3, §4, §5

CHO-K1 cells = assay: WST1 cytotoxicity test; format: cell-based, Chinese hamster; settings: WST1, 24 hours at 37° C.; for IC50: read-out: IC50 CHO
Text: Cytotoxicity: The test WST1 was used to measure the cytotoxic activity of the compounds of the invention. The test WST1 is a colorimetric test allowing to measure the viability and the degree of cell proliferation. It is based on cleavage of the colorless tetrazolium salts WST-1 (4—[3-(4-iodophenyl)-2-(4-nitrophenyl)-2H-5-tetrazolio]-1,3-benzene disulfonate) with mitochondrial dehydrogenases to the yellow-colored formazan derivative, which may be quantified by spectrophotometry at 420-480 nm. The WST1 test was performed on Chinese hamster ovary (CHO) cells. The CHO-K1 cells (ATCC, USA) were kept in culture in McCoy's 5A medium supplemented with 10% fetal calf serum, 2 mM of L-glutamine and a mixture of penicillin-streptomycin (100 U/ml: 10 μg/mL). The culture was incubated at 37° C. under an atmosphere enriched in CO2 (5%), and subcultured every two days. The cells were transferred into 96-well plates (25,000 cells/mL) in whole McCoy's 5A medium, and maintained for 24 hours at 37° C. under a humid atmosphere enriched in CO2 (5%). Increasing concentrations of tested compounds were added to the wells, each compound was tested in replicates and 8 growth controls containing the cells in the medium alone were included in each series of tests. After 24 hours at 37° C. (5% CO2), the culture medium was removed, the cells were rinsed in phosphate buffer (PBS) and 50 μL of PBS containing 10% of reagent WST1 were added to each well. After 20 minutes of incubation at 37° C., the results were read by spectrophotometry at 450 nm. The results are expressed in dose-response relationships, modeled by nonlinear regression analysis using the TableCurve software.
Cytotoxicity: The same WST1 test as described in Example 2 above was used.

[3] = tested on: Escherichia coli (ATCC28922); assay: Microdilution MIC assay (CLSI-based), E. coli; format: cell-based; settings: 20 hours incubation at 35-37° C., MHB; for MIC: read-out: Minimum inhibitory concentration E. coli ATCC28922
Method: as §1, §2, §3, §4, §5

[4] = tested on: Enterococcus faecalis (ATCC29212); assay: Microdilution MIC assay (CLSI-based), E. faecalis; format: cell-based; settings: 20 hours incubation at 35-37° C., MHB; for MIC: read-out: Minimum inhibitory concentration E. faecalis ATCC29212
Method: as §1, §2, §3, §4, §5

[5] = Staphylococcus aureus, ATCC25923, 20 h
[6] = Pseudomonas aeruginosa, ATCC27853, 20 h
[7] = Cricetulus griseus, CHO-K1, 24 h
[8] = Escherichia coli, ATCC28922, 20 h
[9] = Enterococcus faecalis, ATCC29212, 20 h

Row | Compound | Minimum inhibitory concentration S. aureus ATCC25923 [1] [µg/mL] | MIC [1] [µM] | Minimum inhibitory concentration P. aeruginosa ATCC27853 [2] [µg/mL] | MIC [2] [µM] | IC50 CHO (CHO-K1 cells) [µg/mL] | IC50 (CHO-K1 cells) [µM] | Minimum inhibitory concentration E. coli ATCC28922 [3] [µg/mL] | MIC [3] [µM] | Minimum inhibitory concentration E. faecalis ATCC29212 [4] [µg/mL] | MIC [4] [µM] | MIC [1, 5] | MIC [2, 6] | IC50 (CHO-K1 cells; [7]) | MIC [3, 8] | MIC [4, 9]
1 | COC(=O)[C@H](NC(=O)CC[C@@H](C)[C@H]1CCC2C3C(CC[C@@]21C)[C@@]1(C)CC[C@H](NCCCNCCCN)C[C@H]1C[C@H]3O)C(C)C (stereo partly drawn) [Compound S007, methyl ((4R)-4-((3S,5S,7R,10S,13R,17R)-3-((3-((3-aminopropyl)amino)propyl)amino)-7-hydroxy-10,13-dimethylhexadecahydro-1H-cyclopenta[a]phenanthren-17-yl)pentanoyl)-D-valinate] | 8 (≈ 12.9 µM) | 12.5 (≈ 7.74 µg/mL) | 16 (≈ 25.9 µM) | 25 (≈ 15.5 µg/mL) | 70.20 (≈ 113 µM) | 113 | 4 (≈ 6.46 µM) | 6.25 (≈ 3.87 µg/mL) | 8 (≈ 12.9 µM) | 12.5 (≈ 7.74 µg/mL) | – | – | – | – | –
2 | COC(=O)[C@H]1CCCN1C(=O)CC[C@@H](C)[C@H]1CCC2C3C(CC[C@@]21C)[C@@]1(C)CC[C@H](NCCCNCCCN)C[C@H]1C[C@H]3O (stereo partly drawn) [Compound S045, methyl ((4R)-4-((3S,5S,7R,10S,13R,17R)-3-((3-((3-aminopropyl)amino)propyl)amino)-7-hydroxy-10,13-dimethylhexadecahydro-1H-cyclopenta[a]phenanthren-17-yl)pentanoyl)-D-prolinate] | – | – | – | – | – | – | – | – | – | – | 2 µg/mL and 3.13 µM | 16 µg/mL and 25 µM | 7.77 µg/mL and 12.6 µM | 4 µg/mL and 6.25 µM | 4 µg/mL and 6.25 µM
3 | COC(=O)[C@H](C)NC(=O)CC[C@@H](C)[C@H]1CCC2C3C(CC[C@@]21C)[C@@]1(C)CC[C@H](NCCCNCCNCCCN)C[C@H]1C[C@H]3O (stereo partly drawn) [Compound S034, methyl ((4R)-4-((3S,5S,7R,10S,13R,17R)-3-((3-((2-((3-aminopropyl)amino)ethyl)amino)propyl)amino)-7-hydroxy-10,13-dimethylhexadecahydro-1H-cyclopenta[a]phenanthren-17-yl)pentanoyl)-L-alaninate] | – | – | – | – | – | – | – | – | – | – | 50 µM and 32 µg/mL | 100 µM and 64 µg/mL | 266 µM and 168 µg/mL | 50 µM and 32 µg/mL | 6.25 µM and 4 µg/mL
4 | COC(=O)[C@H](NC(=O)CC[C@@H](C)[C@H]1CCC2C3CC[C@@H]4C[C@@H](NCCCN(CCCN)CCCN)CC[C@]4(C)C3C[C@H](O)[C@@]21C)C(C)C (stereo partly drawn) [Compound S054, methyl ((4R)-4-((3S,5R,10S,12S,13R,17R)-3-((3-(bis(3-aminopropyl)amino)propyl)amino)-12-hydroxy-10,13-dimethylhexadecahydro-1H-cyclopenta[a]phenanthren-17-yl)pentanoyl)-D-valinate] | – | – | – | – | – | – | – | – | – | – | 6.25 µM and 4 µg/mL | 100 µM and 64 µg/mL | > 100 µM and > 67 µg/mL | 50 µM and 32 µg/mL | 100 µM and 64 µg/mL
5 | COC(=O)[C@@H](NC(=O)CC[C@@H](C)[C@H]1CCC2C3C(CC[C@@]21C)[C@@]1(C)CC[C@H](NCCNCCNCCNCCN)C[C@H]1C[C@H]3O)C(C)C (stereo partly drawn) [Compound S049, methyl ((4R)-4-((3S,5S,7R,10S,13R,17R)-3-((2-((2-((2-((2-aminoethyl)amino)ethyl)amino)ethyl)amino)ethyl)amino)-7-hydroxy-10,13-dimethylhexadecahydro-1H-cyclopenta[a]phenanthren-17-yl)pentanoyl)-L-valinate] | – | – | – | – | – | – | – | – | – | – | 50 µM and 32 µg/mL | 100 µM and 64 µg/mL | 94.9 µM and 64.2 µg/mL | 100 µM and 64 µg/mL | 100 µM and 64 µg/mL
6 | COC(=O)[C@@H](Cc1ccc(O)cc1)NC(=O)CC[C@@H](C)[C@H]1CCC2C3C(C[C@H](O)[C@@]21C)[C@@]1(C)CC[C@H](NCCCNCCCCNCCCN)C[C@H]1C[C@H]3O (stereo partly drawn) [Compound S061, methyl ((4R)-4-((3S,5S,7R,10S,12S,13R,17R)-3-((3-((4-((3-aminopropyl)amino)butyl)amino)propyl)amino)-7,12-dihydroxy-10,13-dimethylhexadecahydro-1H-cyclopenta[a]phenanthren-17-yl)pentanoyl)-D-tyrosinate] | – | – | – | – | – | – | – | – | – | – | 6.25 µM and 4 µg/mL | 100 µM and 64 µg/mL | 6.85 µM and 5.17 µg/mL | 100 µM and 64 µg/mL | 100 µM and 64 µg/mL
7 | COC(=O)[C@H](NC(=O)CC[C@@H](C)[C@H]1CCC2C3C(CC[C@@]21C)[C@@]1(C)CC[C@H](NCCCN)C[C@H]1C[C@H]3O)C(C)C (stereo partly drawn) [Compound S018, methyl ((4R)-4-((3S,5S,7R,10S,13R,17R)-3-((3-aminopropyl)amino)-7-hydroxy-10,13-dimethylhexadecahydro-1H-cyclopenta[a]phenanthren-17-yl)pentanoyl)-D-valinate] | – | – | – | – | – | – | – | – | – | – | 50 µM and 32 µg/mL | 200 µM and 128 µg/mL | 10.9 µM and 6.1 µg/mL | 200 µM and 128 µg/mL | 100 µM and 64 µg/mL
8 | COC(=O)[C@H](Cc1ccccc1)NC(=O)CC[C@@H](C)[C@H]1CCC2C3C(CC[C@@]21C)[C@@]1(C)CC[C@H](NCCCN2CCN(CCCN)CC2)C[C@H]1C[C@H]3O (stereo partly drawn) [Compound S025, methyl ((4R)-4-((3S,5S,7R,10S,13R,17R)-3-((3-(4-(3-aminopropyl)piperazin-1-yl)propyl)amino)-7-hydroxy-10,13-dimethylhexadecahydro-1H-cyclopenta[a]phenanthren-17-yl)pentanoyl)-L-phenylalaninate] | – | – | – | – | – | – | – | – | – | – | 25 µM and 16 µg/mL | 100 µM and 64 µg/mL | 3.7 µM and 2.72 µg/mL | 25 µM and 16 µg/mL | 25 µM and 16 µg/mL
9 | COC(=O)[C@H](NC(=O)CC[C@@H](C)[C@H]1CCC2C3C(CC[C@@]21C)[C@@]1(C)CC[C@H](NCCCCCCCCCCN)C[C@H]1C[C@H]3O)C(C)C (stereo partly drawn) [Compound S009, methyl ((4R)-4-((3S,5S,7R,10S,13R,17R)-3-((10-aminodecyl)amino)-7-hydroxy-10,13-dimethylhexadecahydro-1H-cyclopenta[a]phenanthren-17-yl)pentanoyl)-D-valinate] | – | – | – | – | – | – | – | – | – | – | 25 µM and 16 µg/mL | > 200 µM and > 128 µg/mL | 20 µM and 13.2 µg/mL | 200 µM and 128 µg/mL | 25 µM and 16 µg/mL

Source: patent US20260250312A1, “ANTIBACTERIAL COMPOUNDS ELIMINATING DORMANT BACTERIAL CELLS” (UNIVERSITÉ D'AIX-MARSEILLE, priority 2022, published 2026)
